Assay results from patent publication US20150224120A1, “COMPOSITIONS AND METHODS FOR TREATING HYPERPROLINEMIA-ASSOCIATED MENTAL DISORDERS” (priority 2011, published 2015).
“Also recorded” adds a separate entry of the source. Where two headings read alike, the source gives them in different places.

What was measured:
PRODH expression [1] = experiment: Peripheral PRODH expression in first-episode never-medicated SZ patients pre and post treatment (Affymetrix U133v2.0 arrays); format: in vivo, human
From the text: Change in log PRODH were plotted for each subject prior to-(100%), and post-treatment onset. All of the subjects received risperidone. The mean time between blood draws was 8.3 days. […] There were no significant differences in time between blood draws for those with increased PRODH (n=3), versus those with no increase (n=3, p=0.2). […] In a linear regression model, PRODH percent change was a significant predictor of total Brief Psychiatric Rating Scale (BPRS) score approximately 8 days following treatment initiation (p=0.047), after adjusting for baseline total BPRS score. Furthermore, the linear relationship between PRODH change and adjusted BPRS score was highly significant (r=−0.92, p=0.025).
Exploratory analysis of PRODH expression levels were also performed in first-episode, never-medicated SZ patients (n=6). Male, first-episode, never-medicated SZ patients were recruited at the Bellevue Hospital CPEP. A 15 ml blood sample was collected at admission to the CPEP, and peripheral PRODH expression was measured using Affymetrix U133v2.0 arrays (PRODH is one of the 54,000 transcripts). A post-treatment measurement of PRODH expression was also obtained (mean time between blood draws=8.3 days).

PRODH expression [2] = conditions: bronchial smooth muscle cells, treated (n=3) vs untreated (n=3), p=0.01; cited from earlier work
plasma proline [3] = conditions: previously reported (Jacquet et al., 2005); cited from earlier work
plasma proline [4] = experiment: Fasting plasma proline before and after oral Vitamin D supplementation; format: in vivo; conditions: oral 2000 IU daily, five fasting measurements before and five over subsequent five days, p=0.059
From the text: Affymetrix microarray data was accessed via the NCBI GEO database, accession numbers GDS1847 (FIG. 4A) and GDS2628 (FIG. 4B). […] Five fasting plasma proline measurements were obtained prior to the initiation of Vitamin D supplementation (2000 IU daily), after which an additional five fasting plasma measurements were obtained over the subsequent five days.
As illustrated by FIG. 4, the biologically active form of vitamin D (1α,25-dihydroxyvitamin D3 [1α,25(OH)2D3]) is also a potent regulator of PRODH expression. […] Moreover, in vivo (FIG. 4C), proline levels are decreased by treatment with oral vitamin D.

PRODH expression [5] = conditions: intestinal epithelial cells, treated (n=5) vs untreated control cells (n=5), p=0.044 one-tailed, cited from earlier work
[6] = male infants receiving supplements (≦2000 IU/day) during first year of life; cited from earlier work
[7] = women with high vs low dietary consumption; cited from earlier work

Question: With `Cc1nc2n(c(=O)c1CCN1CCC(c3noc4cc(F)ccc34)CC1)CCCC2` [risperidone] as the compound, how does the “PRODH expression post-treatment level (mean)” value (PRODH expression [1]; all subjects n=6, mean 8.3 days between blood draws, pre level 6.10±0.41, p=0.3) read?
Answer: Its value is 6.24±0.35 expression units.

Question: What about the “decrease of PRODH expression after onset of treatment” value (PRODH expression [1]; no-change group, n=3, non-significant, p=0.15) of the same compound?
Answer: The value was 2.3%.

Question: And the “change in PRODH expression between pre and post assay” value (PRODH expression [1]; subset of patients (n=3), p=0.034)?
Answer: Its value is “significantly upregulated”.

Question: What about the “mean percent change (increase) of PRODH expression after onset of treatment” value (PRODH expression [1]; subset of subjects with increase, n=3, p=0.04) of the same compound?
Answer: Its value is 7.3%.

Question: For `C=C1/C(=C\C=C2/CCC[C@]3(C)[C@@H]([C@H](C)CCCC(C)(C)O)CC[C@@H]23)C[C@@H](O)C[C@@H]1O` [1alpha,25-dihydroxy-vitamin-D3], which “PRODH expression (probeset 214203_s_at)” value (PRODH expression [2]) is on record?
Answer: Its value is “upregulation”.

Question: With `CCCC(CCC)C(=O)O` [valproic acid] as the compound, how does the “effect on plasma proline level” value (plasma proline [3]) read?
Answer: Its value is “significant effect”.

Question: For vitamin D, which “plasma proline following Vitamin D treatment” value (plasma proline [4]) is on record?
Answer: The value was “trend for plasma proline to decrease”.

Question: What about the “plasma proline following Vitamin D treatment” value (plasma proline [4]; listed as vitamin D) of the same compound?
Answer: Its value is “decreased”.

Question: What about the “PRODH expression (probeset 40042_r_at)” value (PRODH expression [5]) of the same compound?
Answer: Its value is “upregulated”.

Question: What about the “PRODH expression (probeset 40042_r_at)” value (PRODH expression [5]; listed as vitamin D) of the same compound?
Answer: The value was “significantly upregulates”.

Question: What about the “PRODH expression (probeset 214203_s_at)” value (PRODH expression [2]) of the same compound?
Answer: The value was “significantly upregulates; also recorded: upregulation”.

Question: And the risk of schizophrenia [6]?
Answer: The risk of schizophrenia was “significantly reduced risk”.

Question: What about the “lower risk of psychosis-like symptoms” value [7] of the same compound?
Answer: Its value is 37%.
